Assay results taken from publication PMC7764243, “Alterins Produced by Oyster-Associated Pseudoalteromonas Are Antibacterial Cyclolipopeptides with LPS-Binding Activity” (Marine Drugs, 2020).
In brackets after ≈: the same amount, converted by molar mass. Read-outs that look alike come from different tables or passages of the source. *1 amine or outer side, *2 acyl side, *3 side chain or, on linkers, in order; H or OH if unused. Where a SMILES comes first, the peptide text is derived from it. Bridges are numbered along the chain shown (N, C = ends). [ ]: non-standard residue; d: D form. The star is where a group is joined. ξ: configuration not given here. Dab(3ξ-OH) = O=C([C@@H](N[*:1])C(O)CN[*:3])[*:2]; X1 = C/C=C(/N[*:1])C(=O)[*:2]; Lauroyl = CCCCCCCCCCCC(=O)*; Decanoyl = CCCCCCCCCC(=O)*; Dab = NCC[C@H](N)C(=O)O

Columns and labels:
A. caviae CIP 7616 = type: cell-based, Aeromonas caviae; conditions: broth microdilution, 0.1 to 100 µM, 1.10^6 UFC/mL, 48 h, read by unaided eye
Method: (§1) Antibacterial activity was assayed against a panel of micro-organisms including human and aquaculture pathogenic bacterial species. MICs were performed and defined according to internationally recognized standards (CLSI [21]). Polymyxin B (PMB), an antibiotic CLP produced by Paenibacillus polymyxa, was used as positive control. The major produced alterins, i.e., alt_952, alt_954, alt_970 and alt_980 were assayed against the whole panel of target cells while the minor ones were only tested against a few bacterial strains (Table 2).
(§2) The bacterial strains Aeromonas caviae CIP 7616, Aeromonas hydrophila CIP 7614, Escherichia coli ML35, Escherichia coli SBS 363, Salmonella enterica CIP 8297 and Yersinia ruckeri ATCC 29473 were grown in Tryptic Soy Broth. The marine bacterial strains Vibrio crassostreaeJ2–9, Vibrio tasmaniensisLGP32, Vibrio tapetis CECT 4600 were grown in Marine Broth. All of them were cultivated at optimal temperature according to ATCC and CIP specifications. The strain Vibrio parahaemolyticus13-028A/3 was grown at 28 °C in Tryptic Soy Broth supplemented in NaCl (20 g.L^−1) according to [47]. The strains Pseudoalteromonas sp. hCg-6 and hCg-42 were cultured using a synthetic medium containing: 17.11 g sucrose, 30 g sea salts (Sigma-S9883), 7.6 g K2HPO4, 3 g KH2PO4 and 20 mL MEM 50X (Dulbecco) per liter. The cultures were grown at 18 °C for 72 h with shaking (100 rpm).
(§3) MICs were determined using broth microdilution method according to [21]. To resume, antibacterial compounds ranging from 0.1 to 100 µM were assayed against the target bacteria in mid-logarithmic phase culture (1.10^6 UFC.mL^−1) in adapted culture medium according to the strain. MICs were examined by unaided eye after a 48h-incubation time at the optimal temperature growth. The lipopeptide PMB (Sigma-P4932) was used as antibiotic control.

S. enterica CIP 8297 = type: cell-based, Salmonella enterica; conditions: broth microdilution, 0.1 to 100 µM, 1.10^6 UFC/mL, 48 h, read by unaided eye
Method: as §1, §2, §3

P. aeruginosa ATCC 27853 = type: cell-based, Pseudomonas aeruginosa; conditions: P. aeruginosa ATCC 27853; broth microdilution, 0.1 to 100 µM, 1.10^6 UFC/mL, 48 h, read by unaided eye
Method: as §1, §3

E. coli ML35 = type: cell-based, Escherichia coli; conditions: E. coli ML35 (long-chain LPS); broth microdilution, 0.1 to 100 µM, 1.10^6 UFC/mL, 48 h, read by unaided eye
Method: as §1, §2, §3

E. coli SBS363 = type: cell-based, Escherichia coli; conditions: E. coli SBS363 (short-chain LPS); broth microdilution, 0.1 to 100 µM, 1.10^6 UFC/mL, 48 h, read by unaided eye
Method: as §1, §2, §3

V. harveyi ORM4 = type: cell-based, Vibrio harveyi; conditions: V. harveyi ORM4; broth microdilution, 0.1 to 100 µM, 1.10^6 UFC/mL, 48 h, read by unaided eye
Method: as §1, §3

Pseudoalteromonas hCg-42 = type: cell-based, Pseudoalteromonas sp.; conditions: Pseudoalteromonas hCg-42 (producing strain); broth microdilution, 0.1 to 100 µM, 1.10^6 UFC/mL, 48 h, read by unaided eye
Method: as §1, §2, §3

Pseudoalteromonas hCg-6 = type: cell-based, Pseudoalteromonas sp.; conditions: Pseudoalteromonas hCg-6 (producing strain); broth microdilution, 0.1 to 100 µM, 1.10^6 UFC/mL, 48 h, read by unaided eye
Method: as §1, §2, §3

V. tasmaniensis LGP 32 = type: cell-based, Vibrio tasmaniensis; conditions: V. tasmaniensis LGP 32; broth microdilution, 0.1 to 100 µM, 1.10^6 UFC/mL, 48 h, read by unaided eye
Method: as §1, §2, §3

[1] = tested on: V. parahaemolyticus 13-028A/3; type: cell-based, Vibrio parahaemolyticus; conditions: broth microdilution, 0.1 to 100 µM, 1.10^6 UFC/mL, 48 h, read by unaided eye
Method: as §1, §2, §3

V. tasmaniensis LGP32 = assay: Viability (cultivability, CFU count) in seawater; type: cell-based, Vibrio tasmaniensis; conditions: 20 µM, 4 h incubation in sterile seawater, inoculum 1.10^6 UFC/mL, plated in duplicate
Method: As a first step, we have measured the antimicrobial activity of alt_952, alt_954, alt_970 and alt_980 against V. tasmaniensis LGP32 in seawater after a 4 hour-long incubation. […] The effects on membrane were also investigated under the same experimental conditions using live/dead bacterial viability kit for flow cytometry (Figure 6). A net cultivability loss of V. tasmaniensis (2-log reduction) was observed when incubated with alt_954 and alt_980 indicative of a bactericidal effect (Figure 7A). In these conditions, V. tasmaniensis was much less affected by alt_970 (1-log reduction) and not by alt_952 (Figure 7A).
[…] After a 4 h-long incubation, viable bacteria were counted. Diluted samples (50 µL) in sterile seawater were spread in duplicate on appropriate medium. Cultivable bacterial concentration (CFU mL^−1) was determined after overnight incubation at optimal growth temperature.

[2] = LPS binding, QCL-1000 chromogenic Limulus Amoebocyte Lysate (LAL) assay; design: species or system Escherichia coli; conditions: LPS 1 EU/mL pre-incubated with CLPs 0.01 to 10 µM, 15 min, 37 °C
From the text: To gain insights into LPS-alterin interactions, we used an endotoxin detection assay, the QCL-1000^TM Endpoint chromogenic Limulus Amoebocyte Lysate (LAL) assay (Lonza). We compared alt_954, alt_970 and alt_980 for their ability to bind LPS from E. coli O111:B4. All alterins bound to LPS in a dose-dependent manner, as indicated by the reduction of biologically active LPS with increasing alterins concentrations (Figure 4A). […] To examine alterin LPS-binding properties in more detail, we performed a surface plasmon resonance (SPR) assay using the Biacore technology (GE Healthcare). The SPR binding measurements were performed using the alt_954 and alt_970. PMB was used as a positive control. The CLPs were immobilized to a CM5 sensor chip surface and titrated with LPS. […] The dose-dependent effect observed (Figure 4B) highlights the LPS-binding properties of the alterins. Both LPS-binding assays, i.e., LAL and SPR, are fully agreeing for alt_954. Moreover, the LPS-binding properties of alterins followed the same general pattern as that of antibacterial activity.
The CLPs were assayed for their LPS-binding properties by using the QCL-1000 Limulus Amoebocyte Lysate kit (LAL-Lonza, Bâle, Switzerland) according to manufacturer instructions. […] Free LPS was then quantified according to the manufacturer’s instructions. […]

A. hydrophila CIP 7614 = type: cell-based, Aeromonas hydrophila; conditions: A. hydrophila CIP 7614; broth microdilution, 0.1 to 100 µM, 1.10^6 UFC/mL, 48 h, read by unaided eye
Method: as §1, §2, §3

Y. ruckeri ATCC 29473 = type: cell-based, Yersinia ruckeri
Method: as §1, §2, §3

V. tapetis CECT 4600T = type: cell-based, Vibrio tapetis; conditions: V. tapetis CECT 4600T; broth microdilution, 0.1 to 100 µM, 1.10^6 UFC/mL, 48 h, read by unaided eye
Method: as §1, §2, §3

[3] = Y. ruckeri ATCC 29473, broth microdilution, 0.1 to 100 µM, 1.10^6 UFC/mL, 48 h, read by unaided eye

Molecule	MIC (A. caviae CIP 7616)	MIC (S. enterica CIP 8297)	MIC (P. aeruginosa ATCC 27853)	MIC (E. coli ML35)	MIC (E. coli SBS363)	MIC (V. harveyi ORM4)	MIC (Pseudoalteromonas hCg-42)	MIC (Pseudoalteromonas hCg-6)	MIC (V. tasmaniensis LGP 32)	MIC [1]	cultivability loss of V. tasmaniensis (log reduction of CFU) (V. tasmaniensis LGP32)	LPS binding (reduction of biologically active LPS, LAL assay) [2]	MIC (A. hydrophila CIP 7614)	MIC (Y. ruckeri ATCC 29473; [3])	MIC (V. tapetis CECT 4600T)	MIC (Y. ruckeri ATCC 29473; ATCC 29473, 48 h)
C/C=C1/NC(=O)[C@@H](NC(=O)CCCCCCCCC)C(O)CNC(=O)[C@H](C(O)CN)NC(=O)[C@H](C(O)CN)NC(=O)[C@H](CCCNC(=N)N)NC(=O)[C@H](CC(C)C)NC(=O)[C@H](CCN)NC1=O (stereo partly drawn) [alt_954] (Decanoyl-[Dab(3ξ-OH)][X1][Dab]LR[Dab(3ξ-OH)][Dab(3ξ-OH)]; lactam 1-C)	5.5 µM (≈ 5.25 µg/mL)	0.7 µM (≈ 0.669 µg/mL)	22 µM (≈ 21 µg/mL)	1.4 µM (≈ 1.34 µg/mL)	0.2 µM (≈ 0.191 µg/mL)	1.4 µM (≈ 1.34 µg/mL)	>100 µM	>100 µM	2.7 µM (≈ 2.58 µg/mL)	6.25 µM (≈ 5.97 µg/mL)	2 log	more efficiently than alt_970	2.7 µM (≈ 2.58 µg/mL)	0.3 µM (≈ 0.287 µg/mL)	>100 µM	
C/C=C1/NC(=O)[C@@H](NC(=O)CCCCCCCCCCC)C(O)CNC(=O)[C@H](C(O)CN)NC(=O)[C@H](C(O)CN)NC(=O)[C@H](CCCNC(=N)N)NC(=O)[C@H](CC(C)C)NC(=O)[C@H](CCN)NC1=O (stereo partly drawn) [alt_982] (Lauroyl-[Dab(3ξ-OH)][X1][Dab]LR[Dab(3ξ-OH)][Dab(3ξ-OH)]; lactam 1-C)					6.3 µM (≈ 6.19 µg/mL)											12.5 µM (≈ 12.3 µg/mL)
Polymyxin B [PMB, reference compound]	3.1 µM	0.8 µM	1.6 µM	3.1 µM	0.2 µM	25 µM	>100 µM	>100 µM	3 µM	>100 µM			0.8 µM	0.4 µM	>100 µM	
